Consider one molecule from ChEMBL document CHEMBL2177097, “Discovery of (2S,3R)-N-[2-(pyridin-3-ylmethyl)-1-azabicyclo[2.2.2]oct-3-yl]benzo[b]furan-2-carboxamide (TC-5619), a selective α7 nicotinic acetylcholine receptor agonist, for the treatment of cognitive disorders” (J Med Chem, 2012).

A value given as a limit tells only on which side of the number the result lay.

In general, half-life refers to the time in which the quantity being followed falls by half. Read a low half-life as rapid decline. The term bioavailability denotes the share of a dose that reaches the circulation, judged against a reference dose that is usually intravenous. The low end stands for little systemic uptake, the high end for much systemic uptake.

Data set [1] is described as follows: Half life in rat. The class given is ADME, organism-based. As to conditions: in vivo.
A short description of data set [2]: Ratio of drug level in brain to plasma in rat measured 6 hrs post dose. The class given is ADME. The following applies: brain and plasma, read-out: BPR.
Data set [3] can be described thus: Drug degradation in human hepatocytes at 4 hrs. The class given is ADME, cell-based, Hepatocyte. The following applies: read-out: Drug degradation.
A short description of data set [4]: Oral bioavailability in rat. The class given is ADME, organism-based. The following applies: in vivo.
A short description of data set [5]: Drug degradation in human liver microsomes at 60 mins. The class given is ADME, Microsome. The following applies: read-out: Drug degradation. (In general: Liver microsomes are a subcellular fraction often used to study metabolism.)

Take `O=C(N[C@@H]1C2CCN(CC2)[C@H]1Cc1cccnc1)c1cc2ccccc2o1` [BRADANICLINE]: in data set [1], the half-life is 120 min. Also, in data set [2], the Kp at 6 h was found to be 0.4. Moreover, the metabolised at 4 h in data set [3] amounted to 27%. For the same molecule, the bioavailability in data set [4] was determined as 20%. The metabolised at 1 h in data set [5] is below 25%.
